Measured values as given in patent US9566263B2, “Methods and formulations for treating scars and β-catenin-mediated disorders” (Hospital for Sick Children, priority 2009, dated 2017).
“Also recorded” adds a separate entry of the source.

Assays:
[1] = test system: cultured cells derived from hyperplastic wounds; assay: SRB cell viability, hyperplastic wound cells; format: cell-based, human; settings: hyperplastic wound cell cultures, vs DMSO control, SRB assay
Procedure: (§1) The biological relevance of the screen was considerable since cells used for the screen were obtained from patients with hyperplastic wounds as well as healthy tissue. The experiments were repeated in triplicate within 96 well plates, with each well containing 4000 cells treated with between 0.1 1.0, or 10 μM of compound or DMSO as a control. The Sulforhodamine B assay (SRB) was used to measure cell viability.

[2] = test system: normal dermal fibroblast cultures; assay: SRB cell viability, normal fibroblasts; format: cell-based, human; settings: SRB assay
Procedure: as §1

β-catenin [3] = assay: Western blot of β-catenin in hyperplastic wound cell cultures; format: cell-based, human; settings: vs DMSO control
Procedure: Tissue samples were washed twice with PBS and lysed with Reporter Gene Assay Lysis Buffer (Roche). Lysates were centrifuged at 16,000×g for 5 minutes to remove cell debris and quantified using the Bicinchoninic Acid (BCA) Protein Assay (Pierce). Equal amounts of total protein were separated by electrophoresis through an SDS-polyacrylamide gel, transferred to a nitrocellulose membrane (Amersham), and immunoblotted overnight at 4° C. with primary antibodies against phosphoGSK3β ([…], rabbit polyclonal, New England Biolabs), β-catenin (mouse monoclonal, Upstate Biotechnology), total GSK3β (mouse monoclonal, Transduction Laboratories), and GAPDH (mouse monoclonal, Upstate Biotechnology). Horseradish Peroxidase (HRP)-tagged secondary antibodies and Enhanced ChemiLuminescence (Amersham) were used to detect hybridization. Densitometery was performed using the AlphaEaseFC software (Alpha Innotech). Western blotting was performed in triplicates to ensure reproducibility. β-catenin levels in cell cultures from hyperplastic scars treated with Nefopam or control were analyzed using Western blot analysis. […] GAPDH expression was included as a loading control.

[4] = test system: aggressive fibromatosis (AF) tumours; assay: Apc+/Apc1638N AF mouse model; format: in vivo; settings: male Apc/Apc1638N mice
From the text: The generation and phenotype of Apc/Apc1638N mice have been well characterized. These mice harbour a targeted mutation at codon 1638 in the Apc gene as a result of a neomycin insert in antisense orientation at exon 15. […] Treatment by daily oral gavaging began 2 months after Apc/Apc1638N mice were weaned and continued for 3 months. At autopsy, AF tumours and intestinal polyps were scored macroscopically. AF tumours and normal tissue were collected for protein extraction and fixed for histological examination.

β-catenin [5] = assay: Western blot/densitometry of β-catenin in human AF tumour primary cell cultures; format: cell-based
Procedure: Primary cell cultures from the human AF tumour and normal fascial tissue samples were established. Monolayer cultures were cultured in DMEM supplemented with 10% fetal bovine serum and maintained at 37° C. in 5% CO2. Cells were divided when confluent and experiments were performed between the first and fifth passages. […] Tissue samples were washed twice with PBS and lysed with Reporter Gene Assay Lysis Buffer (Roche). Lysates were centrifuged at 16,000×g for 5 minutes to remove cell debris and quantified using the Bicinchoninic Acid (BCA) Protein Assay (Pierce). Equal amounts of total protein were separated by electrophoresis through an SDS-polyacrylamide gel, transferred to a nitrocellulose membrane (Amersham), and immunoblotted overnight at 4° C. with primary antibodies against phosphoGSK3β ([…], rabbit polyclonal, New England Biolabs), β-catenin (mouse monoclonal, Upstate Biotechnology), total GSK3β (mouse monoclonal, Transduction Laboratories), and GAPDH (mouse monoclonal, Upstate Biotechnology). Horseradish Peroxidase (HRP)-tagged secondary antibodies and Enhanced ChemiLuminescence (Amersham) were used to detect hybridization. Densitometery was performed using the AlphaEaseFC software (Alpha Innotech). Western blotting was performed in triplicates to ensure reproducibility.

[6] = test system: primary cells derived from human AF tumours; assay: Trypan Blue cell viability, human AF tumour cells; format: cell-based; settings: 5 days, vs 0.1% DMSO
Procedure: (§2) Primary cell cultures from the human AF tumour and normal fascial tissue samples were established. Monolayer cultures were cultured in DMEM supplemented with 10% fetal bovine serum and maintained at 37° C. in 5% CO2. Cells were divided when confluent and experiments were performed between the first and fifth passages.
(§3) Cell viability was measured using the Trypan Blue Dye Exclusion method. Cells were stained with Trypan Blue Dye at a 1:1 ratio, and both live (clear) and dead (blue) cells were accounted for. Proliferation was measured using 5-bromo-2-deoxy-uridine (BrdU) Incorporation assay. After BrdU incubation for 12 hours, cells with incorporated BrdU were identified using […] anti-BrdU antibody and horse anti-mouse antibody conjugated to Alkaline Phosphatase. Presence of BrdU was detected using Alkaline Phosphatase substrate. Percentage of positively stained nuclei out of total nuclei was analyzed over 10 high-powered fields.

[7] = test system: primary cells derived from human aggressive fibromatosis tumours; assay: BrdU incorporation proliferation assay, human AF tumour cells; format: cell-based; settings: 5 days, vs DMSO
Procedure: as §2, §3

β-catenin [8] = assay: Western blot/densitometry of β-catenin in human fibroblast cells; format: cell-based
Procedure: Tissue samples were washed twice with PBS and lysed with Reporter Gene Assay Lysis Buffer (Roche). Lysates were centrifuged at 16,000×g for 5 minutes to remove cell debris and quantified using the Bicinchoninic Acid (BCA) Protein Assay (Pierce). Equal amounts of total protein were separated by electrophoresis through an SDS-polyacrylamide gel, transferred to a nitrocellulose membrane (Amersham), and immunoblotted overnight at 4° C. with primary antibodies against phosphoGSK3β ([…], rabbit polyclonal, New England Biolabs), β-catenin (mouse monoclonal, Upstate Biotechnology), total GSK3β (mouse monoclonal, Transduction Laboratories), and GAPDH (mouse monoclonal, Upstate Biotechnology). Horseradish Peroxidase (HRP)-tagged secondary antibodies and Enhanced ChemiLuminescence (Amersham) were used to detect hybridization. Densitometery was performed using the AlphaEaseFC software (Alpha Innotech). Western blotting was performed in triplicates to ensure reproducibility. Hyperplastic wounds are characterized by elevated β-catenin levels during the proliferative phase.

β-catenin [9] = assay: Western blot of β-catenin in wounds of Tcf mice; format: in vivo, mouse; settings: 40 mg/kg daily intraperitoneal, 14 days post-wounding, vs control
From the text: A Tcf-reporter construct containing the lacZ gene downstream of a c-Fos minimal promoter and three consensus Tcf-binding motifs was constructed. Upon binding of β-catenin/Tcf complex to Tcf motifs, the expression of lacZ is activated. Tcf mice were wounded as described previously: two 4 mm diameter full-thickness skin wounds were generated using a dermal biopsy punch (Miltex Instrument Company, York, Pa., USA). […] At 14 days post-wounding, wound sizes were examined, and wound tissues were collected for RNA and protein extraction and fixed for histological examination. Tissue samples were washed twice with PBS and lysed with Reporter Gene Assay Lysis Buffer (Roche). Lysates were centrifuged at 16,000×g for 5 minutes to remove cell debris and quantified using the Bicinchoninic Acid (BCA) Protein Assay (Pierce). Equal amounts of total protein were separated by electrophoresis through an SDS-polyacrylamide gel, transferred to a nitrocellulose membrane (Amersham), and immunoblotted overnight at 4° C. with primary antibodies against phosphoGSK3β ([…], rabbit polyclonal, New England Biolabs), β-catenin (mouse monoclonal, Upstate Biotechnology), total GSK3β (mouse monoclonal, Transduction Laboratories), and GAPDH (mouse monoclonal, Upstate Biotechnology). Horseradish Peroxidase (HRP)-tagged secondary antibodies and Enhanced ChemiLuminescence (Amersham) were used to detect hybridization. […]

[10] = test system: 4 mm full thickness cutaneous wounds; assay: Wound/scar size in Tcf mice, systemic Nefopam; format: in vivo, mouse; settings: 4 mm punch wound, 40 mg/kg daily systemic, day 14 post-wounding, vs saline carrier
From the text: A Tcf-reporter construct containing the lacZ gene downstream of a c-Fos minimal promoter and three consensus Tcf-binding motifs was constructed. Upon binding of β-catenin/Tcf complex to Tcf motifs, the expression of lacZ is activated. Tcf mice were wounded as described previously: two 4 mm diameter full-thickness skin wounds were generated using a dermal biopsy punch (Miltex Instrument Company, York, Pa., USA). […] At 14 days post-wounding, wound sizes were examined, and wound tissues were collected for RNA and protein extraction and fixed for histological examination. […] Cutaneous wounds were generated using a biopsy punch procedure resulting in a 4 mm diameter full thickness circular wound. Scale is in mm units.

hyperplastic scars = assay: TGF-β induced hyperplastic scar model; format: in vivo, mouse; settings: mice, TGF-β injected prior to wounding, 4 mm punch wounds, 40 mg/kg daily
Procedure: Both oral and intraperitoneal administration routes were evaluated (40 mg/kg body weight, daily; 0.1% DMSO as control).

## CN1CCOC(c2ccccc2)c2ccccc2C1 (stereo not drawn) [Nefopam, 5-methyl-1-phenyl-1,3,4,6-tetrahydro-2,5-benzoxazocine]
[1]
  percent cell survival: significant decline in the percent of cells surviving
[2]
  percent cell survival: remained relatively unchanged
β-catenin [3]
  β-catenin protein levels: substantially reduce β-catenin protein levels; also recorded: substantially reduced the protein level of β-catenin
[4]; 40 mg/kg daily oral gavage
  number of epithelial-derived polyps in the upper gastrointestinal tract: no significant differences
[4]; 40 mg/kg daily oral gavage for 3 months, at 6 months of age, mean ± 95% CI
  number of AF tumours formed: 8.18±1.77
β-catenin [5]; 250 μm Nefopam for 5 days vs 0.1% DMSO
  decrease in total β-catenin levels (densitometry): ~5 fold
β-catenin [5]; treatment for 5 days
  total β-catenin protein (92 kDa), Western blot: marked decrease in the amount of protein
[6]
  number of dead cells: the number of dead cells did not change; also recorded: no significant differences in the number of dead cells
  number of live cells: significantly decreased the number of live cells; also recorded: significantly smaller number of live cells
[7]
  percent BrdU+/DAPI+ cells (proliferation): significantly reduces the incorporation of BrdU; also recorded: significantly fewer proliferating cells
β-catenin [8]; human fibroblast cell cultures vs 0.1% DMSO
  decrease in total β-catenin levels (densitometry): approximately 4 fold
β-catenin [8]; immortalized human fibroblast cells vs DMSO
  total β-catenin protein levels, Western blot: significant decrease in total β-catenin protein levels
β-catenin [9]
  β-catenin levels in wounds: decrease in β-catenin levels
[10]
  scar diameter: significantly smaller in diameter
Hyperplastic scars
  hyperplastic scar size: smaller scars
